# According to patent publication US20240382403A1, “COSMETIC, DERMATOLOGICAL OR COSMECEUTICAL TREATMENT, IN PARTICULAR PROPIGMENTING” (Sederma, priority 2021, published 2024):
# How the values were obtained:
# [1] = system: normal human melanocytes (NHM); assay: Melanin production by NHM without UV induction (spectrophotometry); type: cell-based; conditions: for melanin production by NHM, Variation (%) vs control / Melanin: n = 4; for increase in pigmentation of NHM vs. control: 16 ppm; for Melanin Variation (%) vs control / Melanin: 10 days contact; for Melanin: without UV induction
# Description: (§1) NHM are cultivated and placed in contact with the product according to the invention for 10 days. At the end of this contact period, the mats are ground and the melanin is extracted from the cells. The quantity of melanin is assessed by spectrophotometry, using a standard range established previously from a melanin solution and compared to the control. A protein assay using the bicinchoninic acid (BCA) method is performed to estimate the quantity of cells and to standardise the obtained data.
# The tests were carried out on NHM, the protocol being the same to the one above of point a)
# The protocol is the same as that of point a) above.
# NHM [2] = assay: Pigmentation of NHM, microscopic observation by expert; type: cell-based, human; conditions: 10 days
# Description: NHM are cultivated and placed in contact with the product according to the invention for 10 days. At the end of this contact period, cells are observed with a microscope and variation of pigmentation of cells versus control is evaluated by an expert.
# B16 mouse pigment cells [3] = assay: Melanin production by B16 mouse pigment cells; type: cell-based; conditions: 2 days contact; for Melanin: n = 4
# Description: as §1
# (§2) B16 mouse pigment cells are cultivated and placed in contact with the product according to the invention for 2 days. For this type of cells, tyrosinase is also assayed. Tyrosinase is the first enzyme in the chain of melanogenesis, changing tyrosine to DOPA-quinone.
# Tyrosinase = Tyrosinase activity by B16 mouse pigment cells; type: cell-based; conditions: 2 days contact; for Tyrosinase: n = 4
# Description: as §2
# [4] = system: Normal human keratinocytes (NHK); assay: NHK phagocytosis of fluorescent microbeads mimicking melanosomes; type: cell-based; conditions: for Phagocytosis (μbeas: (Total Area/1000)): 24 h treatment then beads 3 h, n = 4
# Description: Normal human keratinocytes (NHK) are seeded and cultured and, once at 50% sub-confluence, receive the tyrosine derivative according to the invention, or its solvent, at different concentrations for 24 h. At the end of this period, the cells receive the fluorescent microbeads mimicking melanosomes for 3 h. Then, the cells are rinsed to remove excess beads, and the mats are visualized under a fluorescence microscope to quantify phagocytosis. The cell concentration is estimated using the Hoescht method.
# HaCaT keratinoctes [5] = assay: Hyaluronic acid production by keratinocytes (ELISA); type: cell-based; conditions: 3 days; for Hyaluronic acid: n = 4
# Description: (§3) HaCaT keratinoctes are seeded and cultured and, once at sub-confluence, receive the tyrosine derivative according to the invention, or its solvent, at different concentrations for 3 days. At the end of this period, the media are collected for hyaluronic acid and laminin assays using ELISA methods. The cell concentration is estimated using the Hoescht method.
# HaCaT keratinoctes [6] = assay: Laminin production by keratinocytes (ELISA); type: cell-based; conditions: 3 days; for Laminin: n = 4
# Description: as §3
# keratinocytes [7] = assay: PGE2 in keratinocytes with or without UVB (ELISA); type: cell-based; conditions: for PGE2 with UVB irradiation / PGE2 without irradiation: n = 3
# Description: (§4) Keratinocytes are seeded and cultured and, once at sub-confluence, receive the tyrosine derivative according to the invention, or its solvent, at different concentrations. After 24 hours, the cells are rinsed and then exposed to UVB, and the cells are then re-treated with the media containing the tyrosine derivative according to the invention at different concentrations for 24 hours. Other cases are not exposed. The culture media are assayed for PGE2, IL6 and IL8 using ELISA methods. The number of cells was estimated using the Hoescht method.
# fibroblasts = assay: PGE2 in fibroblasts with or without UVB (ELISA); type: cell-based; conditions: for PGE2 with UVB irradiation / PGE2 without irradiation: n = 3
# Description: as §4
# The same protocol is applied in parallel to Fibroblasts.
# keratinocytes [8] = assay: IL8 in keratinocytes with UVB (ELISA); type: cell-based; conditions: for IL8 with UVB irradiation: n = 2
# Description: as §4
# keratinocytes [9] = assay: IL6 in keratinocytes with UVB (ELISA); type: cell-based; conditions: for IL6 with UVB irradiation: n = 2
# Description: as §4
# NHM [10] = assay: Number of cells (BCA protein assay) in the NHM melanin test; type: cell-based, human; conditions: tested concentrations 5.5 and 11 ppm
# Description: as §1
# B16 mouse pigment cells [11] = assay: Number of cells in the B16 melanin test; type: cell-based; conditions: tested concentrations 5.5 and 11 ppm
# Description: as §1, §2
# [12] = 12.5 μM (5.5 ppm of N-Palmitoyl-O-methyl-L-Tyrosine, 5.25 ppm of N-Palmitoyl-L-Tyrosine)
# [13] = 25 μM (11 ppm of N-Palmitoyl-O-methyl-L-Tyrosine, 10.5 ppm of N-Palmitoyl-L-Tyrosine)
smiles,measurement,setting,value
"CCCCCCCCCCCCCCCC(=O)N[C@@H](Cc1ccc(O)cc1)C(=O)O [N-Palmitoyl-L-Tyrosine, reference compound]","melanin production by NHM, Variation (%) vs control",[1]; [12],+7%; dns
same,"melanin production by NHM, Variation (%) vs control",[1]; [13],+10%; dns
same,Variation of pigmentation of cells versus control (expert grade),NHM [2]; 12.5 μM,0
same,Variation of pigmentation of cells versus control (expert grade),NHM [2]; 25 μM,0
CCCCCCCCCCCCCCCC(=O)N[C@@H](Cc1ccc(OC)cc1)C(=O)O [N-Palmitoyl-O-methyl-L-Tyrosine],"melanin production by NHM, Variation (%) vs control",[1]; [12],+50%; p < 0.01
same,"melanin production by NHM, Variation (%) vs control",[1]; [13],+86%; p < 0.01
same,increase in pigmentation of NHM vs. control,[1]; NHM,52%
same,Melanin Variation (%) vs control,"[1]; NHM, 5.5 ppm",+50%; p < 0.01
same,Melanin,"[1]; NHM, 5.5 ppm",404 +/− 42 μg/mL/10^6 cell.
same,Melanin Variation (%) vs control,"[1]; NHM, 11 ppm",+86%; p < 0.01
same,Melanin,"[1]; NHM, 11 ppm",501 +/− 41 μg/mL/10^6 cell.
same,Melanin Variation (%) vs control,B16 mouse pigment cells [3]; 5.5 ppm,+26%; p < 0.01
same,Melanin,B16 mouse pigment cells [3]; 5.5 ppm,171.1 +/− 2.3 μg/mL/10^6 cell.
same,Melanin Variation (%) vs control,B16 mouse pigment cells [3]; 11 ppm,+62%; p < 0.01
same,Melanin,B16 mouse pigment cells [3]; 11 ppm,220.7 +/− 8.7 μg/mL/10^6 cell.
same,Tyrosinase Variation (%) vs control,Tyrosinase; 5.5 ppm,+9.7%; p < 0.01
same,Tyrosinase,Tyrosinase; 5.5 ppm,2.8 +/− 0 U/1000 μg protein
same,Tyrosinase Variation (%) vs control,Tyrosinase; 11 ppm,+20.5%; p < 0.01
same,Tyrosinase,Tyrosinase; 11 ppm,3.1 +/− 0 U/1000 μg protein
same,Phagocytosis Variation (%) vs control,[4]; 5.5 ppm,+71%; p < 0.01
same,Phagocytosis Variation (%) vs control,[4]; 11 ppm,+129%; p < 0.01
same,Phagocytosis (μbeas: (Total Area/1000)),[4]; 5.5 ppm,6599 +/− 1115 Total Area/1000
same,Phagocytosis (μbeas: (Total Area/1000)),[4]; 11 ppm,9910 +/− 1161 Total Area/1000
same,Hyaluronic acid Variation (%) vs control,HaCaT keratinoctes [5]; 1.375 ppm,+35%; p < 0.01
same,Hyaluronic acid,HaCaT keratinoctes [5]; 1.375 ppm,402 +/− 35 ng/10^6 cell.
same,Hyaluronic acid Variation (%) vs control,HaCaT keratinoctes [5]; 2.75 ppm,+31%; p < 0.01
same,Hyaluronic acid,HaCaT keratinoctes [5]; 2.75 ppm,391 +/− 25 ng/10^6 cell.
same,Laminin Variation (%) vs control,HaCaT keratinoctes [6]; 2.75 ppm,+33%; p < 0.01
same,Laminin,HaCaT keratinoctes [6]; 2.75 ppm,88 +/− 3 ng/10^6 cell.
same,Laminin Variation (%) vs control,HaCaT keratinoctes [6]; 5.5 ppm,+69%; p < 0.01
same,Laminin,HaCaT keratinoctes [6]; 5.5 ppm,111 +/− 9 ng/10^6 cell.
same,PGE2 with UVB irradiation Variation (%) vs control,keratinocytes [7]; 5.5 ppm,−62%; p < 0.01
same,PGE2 without irradiation Variation (%) vs control,keratinocytes [7]; 5.5 ppm,−60%; p < 0.01
same,PGE2 with UVB irradiation,keratinocytes [7]; 5.5 ppm,101 +/− 7 ng/10^6 cell.
same,PGE2 without irradiation,keratinocytes [7]; 5.5 ppm,51 +/− 5 ng/10^6 cell.
same,PGE2 with UVB irradiation Variation (%) vs control,keratinocytes [7]; 11 ppm,−73%; p < 0.01
same,PGE2 without irradiation Variation (%) vs control,keratinocytes [7]; 11 ppm,−58%; p < 0.01
same,PGE2 with UVB irradiation,keratinocytes [7]; 11 ppm,72 +/− 3 ng/10^6 cell.
same,PGE2 without irradiation,keratinocytes [7]; 11 ppm,54 +/− 5 ng/10^6 cell.
same,PGE2 without irradiation Variation (%) vs control,fibroblasts; 5.5 ppm,−32%; p < 0.01
same,PGE2 with UVB irradiation,fibroblasts; 5.5 ppm,7332 +/− 478 ng/10^6 cell.
same,PGE2 without irradiation,fibroblasts; 5.5 ppm,7420 +/− 422 ng/10^6 cell.
same,PGE2 with UVB irradiation Variation (%) vs control,"fibroblasts; 5.5 ppm, non significant data",−19%; nsd*
same,PGE2 with UVB irradiation Variation (%) vs control,fibroblasts; 11 ppm,−33%; p < 0.01
same,PGE2 without irradiation Variation (%) vs control,fibroblasts; 11 ppm,−41%; p < 0.01
same,PGE2 with UVB irradiation,fibroblasts; 11 ppm,6117 +/− 735 ng/10^6 cell.
same,PGE2 without irradiation,fibroblasts; 11 ppm,6470 +/− 311 ng/10^6 cell.
same,IL8 with UVB irradiation Variation (%) vs control,keratinocytes [8]; 5.5 ppm,−42%; p < 0.01
same,IL8 with UVB irradiation,keratinocytes [8]; 5.5 ppm,4.3 +/− 0.7 ng/10^6 cell.
same,IL8 with UVB irradiation Variation (%) vs control,keratinocytes [8]; 11 ppm,−90%; p < 0.01
same,IL8 with UVB irradiation,keratinocytes [8]; 11 ppm,0.7 +/− 0 ng/10^6 cell.
same,IL6 with UVB irradiation Variation (%) vs control,keratinocytes [9]; 5.5 ppm,−43%; p < 0.01
same,IL6 with UVB irradiation,keratinocytes [9]; 5.5 ppm,880 +/− 142 ng/10^6 cell.
same,IL6 with UVB irradiation Variation (%) vs control,keratinocytes [9]; 11 ppm,−45%; p < 0.01
same,IL6 with UVB irradiation,keratinocytes [9]; 11 ppm,853 +/− 115 ng/10^6 cell.
same,number of cells / toxicity,NHM [10],neither toxic nor multiplication activator
same,number of cells / toxicity,B16 mouse pigment cells [11],neither toxic nor multiplication activator
"CCCCCCCC/C=C\CCCCCCCCN[C@@H](Cc1ccc(O)cc1)C(=O)O [oleyl tyrosine, reference compound]",increase in pigmentation of NHM vs. control,[1]; NHM,9%
same,increase in NHM pigmentation vs. control,"[1]; NHM, approximately 3 times more oleyl tyrosine applied than 16 ppm",+35%
